Assay results as given in the NIST ThermoML archive (doi:10.1016/j.tca.2018.10.018).

Test: xn = mol fraction of the nth substance listed
Settings: Liquid; for viscosity: Capillary tube (Ostwald / Ubbelohde) method; for mass density: Siemens Coriolis flowmeter

CCCCCCCCCC(=O)OC [methyl decanoate] + CCCCCCC
Settings | mass density, 298.15 K [kg/m3] | mass density, 308.15 K [kg/m3] | mass density, 318.15 K [kg/m3] | viscosity, 298.15 K [mPa·s] | viscosity, 308.15 K [mPa·s] | viscosity, 318.15 K [mPa·s]
100 kPa, x1 = 0.101 | 706 | 698 | 689 | 0.465 | 0.394 | 0.339
100 kPa, x1 = 0.202 | 730 | 722 | 713 | 0.549 | 0.454 | 0.375
100 kPa, x1 = 0.299 | 753 | 744 | 736 | 0.655 | 0.52 | 0.418
100 kPa, x1 = 0.403 | 773 | 765 | 757 | 0.779 | 0.613 | 0.486
100 kPa, x1 = 0.501 | 792 | 784 | 776 | 0.912 | 0.716 | 0.565
100 kPa, x1 = 0.601 | 810 | 801 | 793 | 1.071 | 0.843 | 0.669
100 kPa, x1 = 0.698 | 826 | 818 | 809 | 1.257 | 0.999 | 0.8
100 kPa, x1 = 0.799 | 841 | 833 | 825 | 1.461 | 1.173 | 0.951
100 kPa, x1 = 0.902 | 855 | 847 | 839 | 1.67 | 1.351 | 1.104
100 kPa, x1 = 1 | 868 | 860 | 853 | 1.934 | 1.628 | 1.38
3000 kPa, x1 = 0.101 | 709 | 700 | 692 | 0.483 | 0.411 | 0.355
3000 kPa, x1 = 0.202 | 734 | 724 | 717 | 0.575 | 0.475 | 0.394
3000 kPa, x1 = 0.299 | 756 | 747 | 739 | 0.686 | 0.547 | 0.441
3000 kPa, x1 = 0.403 | 776 | 767 | 760 | 0.815 | 0.644 | 0.514
3000 kPa, x1 = 0.501 | 795 | 786 | 778 | 0.955 | 0.752 | 0.597
3000 kPa, x1 = 0.601 | 812 | 804 | 796 | 1.119 | 0.885 | 0.704
3000 kPa, x1 = 0.698 | 828 | 820 | 812 | 1.31 | 1.045 | 0.84
3000 kPa, x1 = 0.799 | 843 | 835 | 827 | 1.52 | 1.224 | 0.995
3000 kPa, x1 = 0.902 | 857 | 849 | 841 | 1.735 | 1.407 | 1.152
3000 kPa, x1 = 1 | 870 | – | 854 | 1.992 | – | 1.417
3010 kPa, x1 = 1 | – | 862 | – | – | 1.675 | –
6000 kPa, x1 = 0.101 | 712 | 703 | 696 | 0.502 | 0.428 | 0.371
6000 kPa, x1 = 0.202 | 736 | 727 | 720 | 0.599 | 0.496 | 0.414
6000 kPa, x1 = 0.299 | 758 | 750 | 742 | 0.717 | 0.574 | 0.465
6000 kPa, x1 = 0.403 | 779 | 770 | 763 | 0.851 | 0.676 | 0.541
6000 kPa, x1 = 0.501 | 798 | 789 | 781 | 0.996 | 0.789 | 0.629
6000 kPa, x1 = 0.601 | 815 | 806 | 799 | 1.166 | 0.926 | 0.74
6000 kPa, x1 = 0.698 | 831 | 822 | 815 | 1.364 | 1.091 | 0.88
6000 kPa, x1 = 0.799 | 846 | 837 | 830 | 1.58 | 1.276 | 1.039
6000 kPa, x1 = 0.902 | 859 | 851 | 843 | 1.8 | 1.463 | 1.199
6000 kPa, x1 = 1 | 872 | 864 | 856 | 2.058 | 1.727 | 1.462
9000 kPa, x1 = 0.101 | 715 | 706 | 699 | 0.519 | 0.446 | 0.386
9000 kPa, x1 = 0.202 | 739 | 730 | 723 | 0.623 | 0.518 | 0.433
9000 kPa, x1 = 0.299 | 761 | 752 | 745 | 0.746 | 0.6 | 0.489
9000 kPa, x1 = 0.403 | 781 | 773 | 765 | 0.886 | 0.707 | 0.569
9000 kPa, x1 = 0.501 | 800 | 792 | 784 | 1.038 | 0.825 | 0.661
9000 kPa, x1 = 0.601 | 817 | 809 | 801 | 1.214 | 0.967 | 0.776
9000 kPa, x1 = 0.698 | 833 | 825 | 817 | 1.417 | 1.138 | 0.919
9000 kPa, x1 = 0.799 | 848 | 840 | 832 | 1.639 | 1.327 | 1.083
9000 kPa, x1 = 0.902 | 861 | 853 | 846 | 1.865 | 1.519 | 1.247
9000 kPa, x1 = 1 | 874 | 866 | 859 | 2.123 | 1.779 | 1.491
12000 kPa, x1 = 0.101 | 718 | 709 | 702 | 0.537 | 0.463 | 0.402
12000 kPa, x1 = 0.202 | 742 | 733 | 726 | 0.647 | 0.539 | 0.452
12000 kPa, x1 = 0.299 | 764 | 755 | 748 | 0.776 | 0.626 | 0.512
12000 kPa, x1 = 0.403 | 784 | 775 | 768 | 0.922 | 0.739 | 0.596
12000 kPa, x1 = 0.501 | 802 | 794 | 787 | 1.079 | 0.862 | 0.692
12000 kPa, x1 = 0.601 | 819 | 811 | 804 | 1.261 | 1.009 | 0.812
12000 kPa, x1 = 0.698 | 835 | 827 | 820 | 1.471 | 1.184 | 0.959
12000 kPa, x1 = 0.799 | 850 | 842 | 834 | 1.698 | 1.378 | 1.126
12000 kPa, x1 = 0.902 | 863 | 856 | 848 | 1.93 | 1.575 | 1.295
12000 kPa, x1 = 1 | 877 | 869 | 861 | 2.209 | 1.835 | 1.534
15000 kPa, x1 = 0.101 | 720 | 712 | 705 | 0.555 | 0.48 | 0.418
15000 kPa, x1 = 0.202 | 744 | 736 | 729 | 0.671 | 0.561 | 0.472
15000 kPa, x1 = 0.299 | 766 | 758 | 751 | 0.806 | 0.653 | 0.536
15000 kPa, x1 = 0.403 | 786 | 778 | 771 | 0.958 | 0.771 | 0.624
15000 kPa, x1 = 0.501 | 805 | 797 | 789 | 1.121 | 0.898 | 0.724
15000 kPa, x1 = 0.601 | 822 | 814 | 806 | 1.308 | 1.051 | 0.847
15000 kPa, x1 = 0.698 | 837 | 829 | 822 | 1.524 | 1.23 | 0.998
15000 kPa, x1 = 0.799 | 852 | 844 | 837 | 1.757 | 1.429 | 1.17
15000 kPa, x1 = 0.902 | 865 | 858 | 850 | 1.995 | 1.631 | 1.343
15000 kPa, x1 = 1 | 878 | 871 | 863 | 2.272 | 1.888 | 1.578
